Reference: patent publication US5026688A (Administrators of the Tulane Educational Fund, priority 1988, dated 1991)
Like-named read-outs stand apart in the source and are kept apart here.

Key:
reverse transcriptase = settings: cited from earlier work
H9 cells = test: uptake of radiolabelled drug by H9 cells; assay type: in vitro ADME; settings: for cellular uptake relative to AZT, in words: H9 cells (FIGS. 6, 7)
Description: The reaction was stopped by centrifugation at 13,000×g for 1 min. The cell free supernatant was discarded by aspiration and the cell pellet was washed with ice cold PBS to remove any traces of free radioactive drug. The cell pellet was resuspended in PBS and counted for radioactivity in a Tri-carb Packard liquid scintillation analyzer Model 1500 (Packard Instruments Co., Dowers Grove, Ill.) and the percentage of radioactivity was calculated. (All experiments were done in duplicate and repeated at least three times).

[1] = test system: peripheral blood lymphocytes; test: uptake of radiolabelled drug by peripheral blood lymphocytes (PBL); assay type: in vitro ADME
Description: DP-AZT was therefore tested to determine if the problem of rapid elimination and inadequate permeability could be overcome.
PBL from HIV seronegative donors were also separated by standard Ficol-Hypaque gradient centrifugation. The lymphocytes were grown in RPMI 1640 supplemented with 15% heat-inactivated FBS, 100 U/ml penicillin, 100 μg/ml streptomycin and 2 μg/ml PHA. The cells were incubated for 4 days at 37° C. and uptake studies were done according to the procedure described above for H9 cells.

HIV-1 = test: inhibition of HIV-1 replication in PBL (p24 antigen in culture supernatant); assay type: cell-based; settings: for P24 antigen in culture supernatant: drug-free control 372,835 pg/ml
Description: The concentration of virus-specificp24 antigen in the culture, and, therefore the ability of each drug to inhibit HIV replication was measured by their ability to inhibit production of the p24 antigen.
Inhibition of HIV-1 replication was determined using PBL from seronegative donors. PBL activated with 2 μg/ml PHA for 72 hrs were washed with medium and 10×10^6 cells were incubated for 4 hr at 37° C. (Mitsuya et al., PNAS USA 82:7096, […]) in 5 ml medium containing the appropriate concentration of the drug. The cells were then infected with 10^4 TCID50 of HIV (isolated CD 451) by the addition of 0.1 ml of virus preparation and gentle rocking of the cultures of 15 min intervals for 90 min at room temperature. The fluid volume was increased to 10ml and the cultures maintained at 37° C. in a humidified 5% CO2 -in-air atmosphere. On day 3 post-infection, half the cell-free fluid in each culture was removed and replaced with fresh medium containing the respective drug. The extent of HIV replication in a control and the experimental cultures was evaluated 7 days post-infection by quantifying the concentration of HIV-specific p24 antigen in an undiluted and 5-fold serial dilutions of the culture supernatants using commercial antigen-capture assay kits (DuPont, Billerica, Mass.). The concentration of HIV-specific p24 antigen in the 7 day supernatant fluid of a drug-free control culture was 372,835 pg/ml.

AIDS = settings: cited from earlier work
[2] = Richman et al. 1987; cited from earlier work
p24 gag protein of HIV = settings: in vitro; Mitsuya et al. 1985; cited from earlier work
[3] = in vivo; cited from earlier work
[4] = test system: peripheral blood lymphocytes; test: hydrolysis of DP-AZT to AZT in PBL; assay type: in vitro ADME; settings: 500 μM DP-[3H]-AZT, 5×10^5 PBL, 37° C., 4 h
Description: (§1) In contrast, bone marrow cells were able to hydrolyze only 50% of the pro-drug at the end of 4 hours of incubation.
Suspensions of 5×10^5 PBL (100 μl) in Eppendorf tubes were mixed with 100 μl of 500 μM DP-AZT and incubated at 37° C. At various time intervals (0 to 4 hrs), cell pellets were collected after centrifugation at 13,000×g for 1 min, washed with PBS and extracted with ice-cold 0.2 M perchloric acid. The acid extracts were clarified by centrifugation, neutralized with KOH, centrifuged to remove insoluble potassium perchlorate, evaporated to dryness under reduced pressure (Buchler Evapo-Mix apparatus) and constituted with 200 μl of methanol (Zimmerman et al., J. Biol. Chem. 262:5748, 1987).

[5] = hydrolysis of DP-AZT in mouse bone marrow cells; assay type: in vitro ADME; settings: end of 4 hours of incubation, read-out: hydrolysis of the pro-drug
Description: as §1
Bone marrow cells were obtained from femurs of 8-week old CD-1 mice. The femurs were removed asceptically and rinsed in RPMI-1640. Bone marrow cells were flushed with medium by using a 19-gauge needle and a single cell suspension was made by pipette action. These cells were used for hydrolytic experiments similar to described above for PBL.

[6] = hydrolysis of DP-AZT by human plasma in vitro; assay type: in vitro ADME; settings: up to 4 hours in incubation
[7] = hydrolysis of DP-AZT by rat liver microsomes; assay type: in vitro ADME; settings: 15.5 mg protein/ml, 37° C., 0 to 4 h
Description: as §1
To 900 μl of rat liver microsomes containing 15.5 mg protein/ml (Wong et al., Biochem. Pharmacol. 37:473, 1988), 100 μl of DP-AZT (2 mg/ml dissolved in dimethylsulfoxide) was added and incubated at 37° C. in a water bath. At various time intervals (0 to 4 h) 100 μl of sample was withdrawn and added immediately to ice-cold methanol (400 μl).

mouse bone marrow cells = test: bone marrow toxicity: inhibition of [3H]-thymidine uptake in murine bone marrow cells; assay type: cell-based; settings: for less inhibition of [3H]-thymidine incorporation into bone marrow cells than AZT: relative to AZT, 60 h exposure, 12 h pulse
Description: The percent inhibition of [^3 H]-thymidine uptake was used as an indication of bone marrow toxicity (FIG. 5).
The bone marrow cells were obtained from CD-1 mice as described under Section 6.2.3, supra. Approximately 2×10^5 cells in 100 μl of medium were plated in a 96-well plate, 100 μl of drug solution at various concentrations (0-500 μM) was added, and the plate was incubated at 37° C. for 60 hr. [^3 H]-Thymidine (0.2 μc/well, specific activity 30 c/mmole) was pulsed for 12 hr, and at the end of 72 hr cells were harvested by using Skatron 7019 cell harvester.

[8] = physical and chemical stability; assay type: physicochemical
Source text: The general pattern of synthesis of DP-AZT is outlined in FIG. 1. Treatment of 3,-azido-2',3'-dideoxythymidine in the presence of DCC and 4-dimethyl amino pyridine in ethyl acetate yield the nicotinyl ester. The ester is then quarternized by refluxing it in acetone with methyl iodide. […] In addition to DP-AZT, other derivatives at the N-methyl site in particular can also be prepared.

HIV = settings: Yamamoto et al. 1986; cited from earlier work
[9] = test system: retrovirally infected mice; settings: Watson et al. 1988; cited from earlier work
[10] = 0.5 μM drug, 7 days post-infection
[11] = 5.0 μM drug, 7 days post-infection
[12] = 10.0 μM drug, 7 days post-infection
[13] = Human immunodeficiency virus 1, PBL, 168 h, 0.5 μM drug, 7 days post-infection, read-out: p24 antigen, % reduction of control
[14] = Human immunodeficiency virus 1, PBL, 168 h, 5.0 μM drug, 7 days post-infection, read-out: p24 antigen, % reduction of control
[15] = Human immunodeficiency virus 1, PBL, 168 h, 10.0 μM drug, 7 days post-infection, read-out: p24 antigen, % reduction of control

With Cc1cn([C@H]2C[C@H](N=[N+]=[N-])[C@@H](COP(=O)(O)OP(=O)(O)OP(=O)(O)O)O2)c(=O)[nH]c1=O [AZT triphosphate] as the compound, how does the “reverse transcriptase inhibition, in words” value (reverse transcriptase) read?
Its value is “competitive inhibitor of reverse transcriptase”.

What does the source list for Cc1cn([C@H]2C[C@H](N=[N+]=[N-])[C@@H](CO)O2)c(=O)[nH]c1=O [AZT, 3'-azido-2',3'-dideoxythymidine, reference compound]?
time to maximum intracellular concentration (H9 cells; 5 μM, H-9 cells): 2 h; uptake linearity (H9 cells; 5 μM, H-9 cells): linear for one hour; time to maximum intracellular concentration ([1]; 5 μM, PBL): 2 h; uptake linearity ([1]; 5 μM, PBL): linear for one hour; P24 antigen in culture supernatant (HIV-1; [10]): 67,273 pg/ml; P24 antigen in culture supernatant (HIV-1; [11]): 1,758 pg/ml; P24 antigen in culture supernatant (HIV-1; [12]): 2,235 pg/ml; inhibition at 0.5 µM (HIV-1; [13]): 82%; inhibition at 5 µM (HIV-1; [14]): 99.5%; inhibition at 10 µM (HIV-1; [15]): 99.4%; reverse transcriptase inhibition, in words (reverse transcriptase): does not inhibit reverse transcriptase; mortality in comparison with placebo, in words (AIDS; Fischl et al. 1987): significant differences in mortality; progression of disease, in words (AIDS; individuals with AIDS-related complex, Fischl et al.): delay the progression of the disease; major adverse reactions [2]: nausea, myalgia and insomnia; expression of p24 gag protein of HIV, in words (p24 gag protein of HIV): blocks the expression of the p24 gag protein of HIV; half-life in plasma, in words [3]: very short half-life in plasma

Which “time to maximum intracellular concentration” value (H9 cells; 5 μM, H-9 cells) does the source give for Cc1cn([C@H]2C[C@H](N=[N+]=[N-])[C@@H](COC(=O)C3=CN(C)C=CC3)O2)c(=O)[nH]c1=O [DP-AZT, 5,-[(1,4-dihydro-1-methyl-3-pyridinylcarbonyl)oxy] -3,-azido-2',3'dideoxythymidine] here?
Its value is 2 h.

What about the uptake linearity (H9 cells; 5 μM, H-9 cells) of the same compound?
Its uptake linearity is “linear for one hour”.

What about the “higher intracellular concentration than [3H]-AZT” value (H9 cells; H-9 cells, 5 μM, relative to AZT) of the same compound?
The value was “at least 50%”.

And the “time to maximum intracellular concentration” value ([1]; 5 μM, PBL)?
The value was 2 h.

What about the uptake linearity ([1]; 5 μM, PBL) of the same compound?
The uptake linearity was “linear for one hour”.

And the “higher intracellular concentration than [3H]-AZT” value ([1]; PBL, 5 μM, relative to AZT)?
Its value is “at least 50%”.

And the “hydrolysis of the pro-drug” value [4]?
Its value is “complete hydrolysis of the pro-drug within four hours”.

And the metabolised at 4 h, 500 µM [5]?
Its metabolised at 4 h, 500 µM is 50%.

What about the “hydrolysis by human plasma in vitro” value [6] of the same compound?
Its value is “not hydrolyzed”.

What about the “hydrolysis by rat liver microsomes” value [7] of the same compound?
Its value is “hydrolyzed by rat-liver microsomes (FIG. 4) in a manner similar to that observed in PBL”.

What about the “less inhibition of [3H]-thymidine incorporation into bone marrow cells than AZT” value (mouse bone marrow cells; 5 μM) of the same compound?
The value was 44%.

And the “less inhibition of [3H]-thymidine incorporation into bone marrow cells than AZT” value (mouse bone marrow cells; 10 μM)?
Its value is 59%.

What about the “bone marrow toxicity relative to AZT, in words” value (mouse bone marrow cells; 5 and 10 μM) of the same compound?
Its value is “significantly less toxic than AZT”.

What about the “efficacy against HIV-1 relative to AZT, in words” value (HIV-1; 0.5 μM) of the same compound?
The value was “significantly greater efficacy against HIV-1 than AZT had”.

And the “P24 antigen in culture supernatant” value (HIV-1; [10])?
The value was 3,310 pg/ml.

And the “P24 antigen in culture supernatant” value (HIV-1; [11])?
The value was 475 pg/mL.

And the “P24 antigen in culture supernatant” value (HIV-1; [12])?
Its value is 215 pg/mL.

And the inhibition at 0.5 µM (HIV-1; [13])?
Its inhibition at 0.5 µM is 99.1%.

And the inhibition at 5 µM (HIV-1; [14])?
Its inhibition at 5 µM is 99.9%.

What about the inhibition at 10 µM (HIV-1; [15]) of the same compound?
Its inhibition at 10 µM is 99.9%.

And the inhibition at 0.5 µM (HIV-1; Human immunodeficiency virus 1, read-out: inhibition (p24 antigen))?
Its inhibition at 0.5 µM is 99%.

And the air oxidation stability ([8]; during crystallization and drying)?
The air oxidation stability was “stable compound which does not undergo air oxidation”.

What about the “result of attempted chemical oxidation” value ([8]; hydrogen peroxide or sodium nitrate solution) of the same compound?
The value was “hydrolysis of the ester producing AZT”.

With Cc1cn([C@H]2C[C@H](N=[N+]=[N-])[C@@H](COC(=O)CN3CCN(c4ccccc4)CC3)O2)c(=O)[nH]c1=O [N-phenylpiperazine analogue] as the compound, how does the “cellular uptake relative to AZT, in words” value (H9 cells) read?
The value was “improved cellular uptake”.

Which “HIV replication, in words” value (HIV) does the source give for CC1=C(/C=C/C(C)=C/C=C/C(C)=C/C(=O)O)C(C)(C)CCC1 [Retinoic acid] here?
Its value is “inhibit HIV replication somewhat”.

For Cc1cn([C@H]2C[C@H](N=[N+]=[N-])[C@@H](COC(=O)c3ccc[n+](C)c3)O2)c(=O)[nH]c1=O [compound 2], which hygroscopicity [8] is on record?
Its hygroscopicity is “hygroscopic”.

For Cc1cn([C@H]2C[C@H](N=[N+]=[N-])[C@@H](COC(=O)C(N)Cc3ccccc3)O2)c(=O)[nH]c1=O (some centres unmarked) [phenylalanine AZT analogue], which “cellular uptake relative to AZT, in words” value ([1]; PBL (FIG. 8)) is on record?
The value was “improved over AZT with respect to cellular uptake”.

For CC1=C(/C=C/C(C)=C/C=C/C(C)=C/C(=O)OC[C@H]2O[C@@H](n3cc(C)c(=O)[nH]c3=O)C[C@@H]2N=[N+]=[N-])C(C)(C)CCC1 [retinoic acid ester of AZT], which “cellular uptake relative to AZT, in words” value (H9 cells) is on record?
The value was “a substantial improvement over cellular uptake of AZT”.

With Cc1cn([C@H]2C[C@H](N=[N+]=[N-])[C@@H](COC(=O)C(N)Cc3ccc(O)cc3)O2)c(=O)[nH]c1=O (some centres unmarked) [tyrosine AZT analogue] as the compound, how does the “cellular uptake relative to AZT, in words” value (H9 cells) read?
Its value is “improved over AZT with respect to cellular uptake”.

For Vitamin A, which “activated macrophages and death rate, in words” value [9] is on record?
Its value is “increased numbers of activated macrophages and decreased death rate”.
